Our source for the IC50 values is ChEMBL document CHEMBL3351974, “Development of constrained tamoxifen mimics and their antiproliferative properties against breast cancer cells” (Bioorg Med Chem Lett, 2015).

Structures can show the parent of a compound that is named as a salt.

One assay has as its system MDA-MB-231. Description: Antiproliferative activity against human MDA-MB-231 cells after 48 hrs by MTT assay. Type of assay: functional, cell-based. Conditions: MDA-MB-231, 48 h. In general terms: Formazan colour is commonly taken as a measure of viable cells.
The next assay has as its system MCF7. Description: Antiproliferative activity against human MCF7 cells after 48 hrs by MTT assay. Type of assay: functional, cell-based. Particulars: MCF7, 48 h.
A short description of assay [1]: Antiproliferative activity against human MEpiC cells after 48 hrs by MTT assay. It is filed as cell-based.

Broadly, the IC50 is the concentration needed to halve the response being measured. High values mean weaker potency in that assay, low ones greater potency in that assay. In the assay on MDA-MB-231, `COc1cccc2c1C(=O)c1c(O)c3c(c(O)c1C2=O)C[C@@](O)(C(=O)CO)C[C@@H]3O[C@H]1C[C@H](N)[C@H](O)[C@H](C)O1` [DOXORUBICIN HYDROCHLORIDE] yielded an IC50 of 4.06 µM.
With `COc1ccc(F)cc1C1=C(c2ccccc2)C2(C=CC(=O)C=C2)OC1=O`, the figures for the IC50 (with MCF7; with MDA-MB-231; in assay [1]) were 5.73 µM, 10 µM and 13.5 µM, respectively.
Taken in the same sequence, the figures for `O=C1C=CC2(C=C1)OC(=O)C(c1ccc([N+](=O)[O-])cc1)=C2c1ccccc1` were 5.99 µM, 19 µM and 66.5 µM.
Taken in the same sequence, the figures for `O=C1C=CC2(C=C1)OC(=O)C(c1ccc(O)cc1)=C2c1ccccc1` were 6 µM, 61 µM and 16.8 µM.
For `N#Cc1ccc(C2=C(c3ccccc3)C3(C=CC(=O)C=C3)OC2=O)cc1` the same measures were 19 µM, 8.74 µM and 8.89 µM.
For `COc1ccc(C2=C(c3ccccc3)C3(C=CC(=O)C=C3)OC2=O)cc1`, the figures for the IC50 (with MCF7; in the assay on MDA-MB-231; in assay [1]) were 5.86 µM, 64 µM and 11.7 µM, respectively.
For `O=C1C=CC2(C=C1)OC(=O)C(c1ccc3c(c1)OCO3)=C2c1ccccc1` the same measures were 5.81 µM, 9.12 µM and 34.2 µM.
For `O=C1C=CC2(C=C1)OC(=O)C(I)=C2c1ccccc1` the same measures were 41.5 µM, 7.51 µM and 6.33 µM.
Taken in the same sequence, the figures for `O=Cc1ccc(C2=C(c3ccccc3)C3(C=CC(=O)C=C3)OC2=O)s1` were 6.23 µM, 19.8 µM and 7.08 µM.
Consider `O=C1C=CC2(C=C1)OC(=O)C=C2c1ccccc1`, for which the results for the IC50 (in the assay with MCF7; with MDA-MB-231; in assay [1]) were 6.46 µM, 15.9 µM and 7.67 µM, respectively.
For `O=C1C=CC2(C=C1)OC(=O)C(c1ccc(F)cc1)=C2c1ccccc1` the same measures were 6.32 µM, 38.6 µM and 11.1 µM.
Taken in the same sequence, the figures for `COc1cc(C2=C(c3ccccc3)C3(C=CC(=O)C=C3)OC2=O)cc(OC)c1OC` were 5.79 µM, 9.73 µM and 6.61 µM.
In the case of `COc1ccc(OC(=O)C#Cc2ccccc2)cc1`, the IC50 with MCF7 came to 52.6 µM; in the assay with MDA-MB-231, 6.66 µM; in assay [1], 19.1 µM.
In the case of `O=C1C=CC2(C=C1)OC(=O)C(c1cc3ccccc3o1)=C2c1ccccc1`, the IC50 in the assay with MCF7 worked out at 5.8 µM; in the assay with MDA-MB-231 it was 21.2 µM; in assay [1], 66.5 µM.
For the compound `O=C1C=CC2(C=C1)OC(=O)C(c1ccc(C(=O)O)cc1)=C2c1ccccc1`, the results for the IC50 (in the assay on MCF7; in the assay with MDA-MB-231; in assay [1]) were 5.95 µM, 15.2 µM and 10.4 µM, respectively.
As to `COc1c(Br)cc(C)cc1C1=C(c2ccccc2)C2(C=CC(=O)C=C2)OC1=O`, the half-maximal inhibitory concentration (IC50) was found to be 5.85 µM with MCF7, 9.45 µM in the assay on MDA-MB-231 and 14.7 µM in assay [1].
With `O=C1C=CC2(C=C1)OC(=O)C(c1cc3ccccc3s1)=C2c1ccccc1`, the half-maximal inhibitory concentration (IC50) in the assay on MCF7 came to 5.9 µM; in the assay on MDA-MB-231 it was 32.9 µM; in assay [1], 10.8 µM.
Take `O=C1C=CC2(C=C1)OC(=O)C(c1ccc(CO)cc1)=C2c1ccccc1`: the figures for the IC50 (with MCF7; in the assay on MDA-MB-231; in assay [1]) were 5.76 µM, 8.85 µM and 3.86 µM, respectively.
